Laboratory results: patent US20150290171A1, “METHODS FOR THE TREATMENT OF BONE LOSS” (CELGENE CORPORATION, priority 2012, published 2015)
Read-outs that look alike come from different tables or passages of the source.

Assays:
[1] = test system: Human bone marrow mononuclear cells differentiated into OCL; assay: OCL differentiation (osteoclastogenesis), number of TRAP-5+ cells; format: cell-based; details: OCL cultures, 7 days
[2] = test system: Phosphodiesterase 4 enzyme; assay: Inhibition of PDE4 (enzyme purified from U937 cells, [3H]-cAMP); format: biochemical; details: PDE4 from U937 human monocytic cells, 1 μM cAMP, 45 min at 30° C.
Protocol: Phosphodiesterase 4 enzyme was purified from U937 human monocytic cells by gel filtration chromatography, and phosphodiesterase reactions were carried out as previously described. See, e.g., Muller et al., Bioorg. Med. Chem. Lett., 1998, 8(19): 2669-2674. Briefly, reactions were carried out in 96-well deep-well plates in 50 mM Tris HCl pH 7.5, 5 mM MgCl2, 1 μM cyclic adenosine monophosphate (cAMP), plus 10 nM [^3H]-cAMP for 45 min at 30° C. The reactions were terminated by boiling, treated with 1 mg/ml snake venom, and separated using AG-1X8 ion exchange resin (BioRad). Reactions consumed less than 15% of available substrate.

[3] = test system: RAW 264.7 mouse macrophages; assay: OCL pit formation; format: cell-based; details: RAW 264.7 cells with RANKL 50 ng/mL, FIG. 6 and 7
[4] = test system: sRANKL protein; assay: OBL culture, sRANKL protein in supernatant (ELISA); format: cell-based, human; details: 7 days; for reduction of sRANKL protein levels: OBL; for effect on sRANKL protein levels: OBL supernatants
Protocol: (§1) Normal human OBL (nHOST, Lonza) were grown using OBL basal medium containing 10% fetal bovine serum, ascorbic acid, and gentamicin/amphotericin-B (Lonza). Cells were grown to a density of 5×10^5 cells/mL. Compounds were added and the final concentration of dimethyl sulfoxide (DMSO) was 0.25%. Plates were incubated at 5% CO2, 37° C. for 7 days, changing media every 3 days and adding fresh compound. The supernatant was collected for analysis of RANKL (USCNK Life Science Inc), OPG (R&D Systems), and SOST (R&D Systems) by enzyme-linked immunosorbent assay (ELISA). Cells were stained for ALP.

[5] = test system: RANK gene expression; details: OCL cultures
Protocol: Human bone marrow mononuclear cells were differentiated into OCL using 10 nM dexamethasone and 10 nM vitamin D for 7 days. APR (0.1-10 μM) was added with fresh medium on days 0 and 3. […] OCL were lysed and RNA was isolated and converted to cDNA. Reverse transcription polymerase chain reaction (RT-PCR) was performed to measure gene expression of RANK and bone morphogenetic protein 6 (BMP-6).

[6] = test system: sRANKL; assay: OCY differentiation, sRANKL production (ELISA); format: cell-based, human
Protocol: (§2) OBL were differentiated into OCY using hydroxyapatite/tricalcium phosphate biphasic calcium phosphate ceramic particles (Graftys BCP), which were placed into polycarbonate filter well inserts, and the cell culture media was changed every 3 days for a total of 28 days. Gene expression was measured by quantitative RT-PCR for the following: RANK, RANKL, SOST, OPG, mothers against decapentaplegic homolog 1 (SMAD1), collagen 9A2 (COL9A2), vascular endothelial growth factor C (VEGFC), and fibroblast growth factor receptor 1 (FGFR1). Protein production was measured by ELISA.

[7] = test system: OPG protein; assay: OBL culture, OPG protein in supernatant (ELISA); format: cell-based, human; details: 0.1 μM
Protocol: as §1

[8] = test system: sRANKL protein; assay: sRANKL protein levels in OCL cultures; format: cell-based, human
[9] = test system: sRANKL/OPG protein ratio; assay: OBL culture, sRANKL/OPG protein ratio; format: cell-based, human
Protocol: as §1

[10] = test system: SOST protein; assay: OCY differentiation, SOST protein levels (ELISA); format: cell-based, human
Protocol: as §2

[11] = test system: BMP-6 gene expression; assay: BMP-6 gene expression in OCL cultures (RT-PCR); format: cell-based, human; details: FIG. 5

With `CCOc1cc([C@@H](CS(C)(=O)=O)N2C(=O)c3cccc(NC(C)=O)c3C2=O)ccc1OC` [(+)-2-[1-(3-ethoxy-4-methoxyphenyl)-2-methanesulfonylethyl]-4-acetylaminoisoindolin-1,3-dione] the “reduction of number of TRAP-5+ cells” value ([1]; 0.1 μM) was 21%, the “reduction of number of TRAP-5+ cells” value ([1]; 1 μM) was 49% and the “reduction of number of TRAP-5+ cells” value ([1]; 10 μM) was 73%. The IC50 [2] was 73.5 nM, the “effect on OCL pit formation” value [3] was “inhibition of OCL pit formation” and the “reduction of sRANKL protein levels” value ([4]; 1 μM) was 25%. The “reduction of sRANKL protein levels” value ([4]; 10 μM) was 25%, the “inhibition of RANK gene expression” value ([5]; 1 μM) was 30% and the “inhibition of RANK gene expression” value ([5]; 10 μM) was 25%. The “reduction of sRANKL production” value ([6]; 0.1 μM) was 18%, the “reduction of sRANKL production” value ([6]; 1 μM) was 14% and the “reduction of sRANKL production” value ([6]; 10 μM) was 17%. The “increase of OPG protein levels” value [7] was 42%, the “reduction of sRANKL protein levels” value ([8]; 0.1 μM) was 25% and the “reduction of sRANKL protein levels” value ([8]; 1 μM) was 21%. For the same compound, the “reduction of sRANKL protein levels” value ([8]; 10 μM) was 38%, the “decrease of sRANKL/OPG protein ratio” value ([9]; 0.1 μM) was 39% and the “decrease of sRANKL/OPG protein ratio” value ([9]; 1 μM) was 32%. The “decrease of sRANKL/OPG protein ratio” value ([9]; 10 μM) was 40%, the “reduction of SOST protein levels” value ([10]; 0.1 μM) was 16% and the “reduction of SOST protein levels” value ([10]; 1 μM) was 20%. For the same compound, the “reduction of SOST protein levels” value ([10]; 10 μM) was 14% and the “effect on BMP-6 gene expression” value [11] was “increase of BMP-6 gene expression”.

`NCCCC(O)(P(=O)(O)O)P(=O)(O)O` [Alendronate, alendronate, reference compound] was tested, and the “effect on sRANKL protein levels” value ([4]; 10 μM) was “no significant effect”, the “inhibition of RANK gene expression” value ([5]; 10 μM) was 77% and the “effect on sRANKL/OPG ratio” value ([9]; 10 μM) was “no effect”.

In the case of `COc1ccc(C2CNC(=O)C2)cc1OC1CCCC1` (stereo not drawn) [Rolipram, rolipram, reference compound], the “effect on sRANKL protein levels” value ([4]; 10 μM) is reported as “no significant effect” and the “effect on sRANKL/OPG ratio” value ([9]; 10 μM) is reported as “no effect”.

`O=C(O)c1cc(/N=N/c2ccc(S(=O)(=O)Nc3ccccn3)cc2)ccc1O` [sulfasalazine, reference compound] was tested, and the “effect on sRANKL protein levels” value ([4]; 30 μM) was “no significant effect” and the “effect on sRANKL/OPG ratio” value ([9]; 30 μM) was “no effect”.
